The values below come from US20070275936A1, “Formulations and Treatment Methods” (priority 1998, published 2007).

What all share (type): in vivo
Series [1] is described as follows: Oral administration of 14C BrEA to rats, preliminary pharmacokinetics. As to conditions: 14C BrEA solubilized in different excipients. Here is the method:
Nonclinical studies were conducted using an oral and a subcutaneous formulation of BrEA. Rats were orally administered ^14C BrEA solubilized in different excipients to determine the levels of drug in blood and various tissues.

The subject of series [2] is P. falciparum. The series is described as follows: Intravenous BrEA malaria patient trial. Conditions: day 14, two patients. The procedure:
Response to drug treatment was graded as per World Health Organization criteria (WHO 1973) in infected patients. Evaluation of therapeutic response was determined using the parasitic and fever clearance times. […]
Microscopy. […] Parasitemia was quantified in thin films by counting 2000 red blood cells in clear contiguous fields and finding the proportion that was parasitized. In thick films, parasitemia was quantified by counting parasites against leukocytes. […] Approximately 5000 erythrocytes were counted in clear contiguous fields 24 and 48 h after incubation of blood obtained at each time point and graded for maturity into tiny rings, small rings, large rings, pigmented trophozoites and schizonts. […]
Calculation of Parameters. […] Parasitemia quantification and clinical examination were done once every 6 hours for the first 72 hours, followed by daily assessment of the parameters up to day 7 (168 hrs) and thereafter on day 14.
Blood films were Giemsa-stained and parasitemia quantification was done in thick films by counting 2000 parasites against leukocytes, and the thin films by finding the proportion of infected red blood cells. […]

Series [3] relates to HCV. The series is described as follows: HCV level by PCR in HIV/HCV infected patient dosed I.V. with BrEA. As to conditions: predosing 6.5. Here is the method:
A patient infected with HIV and HCV was dosed I.V. with BrEA for 3 consecutive days using a formulation that contained 20 mg/mL BrEA in 45% w/v hydroxypropyl-β-cyclodextrin and saline. Four mL of the formulation (80 mg BrEA) was administered to the patient every 4 hours during the 3 day treatment period. The patient's predosing HCV level was 6.5 Log10 as measured by PCR and the HCV level was 6.2 Log10 on the first day of dosing, 5.5 Log10 on the 3rd day of dosing and 4.9 Log10 three days after the last dose was administered. HIV RNA levels as measured by PCR was 5.2 Log10 (predosing), 5.8 Log10 (first day), 5.9 Log10 (third day) and 5.4 Log10 (day 6). The NK cell counts (cells/mm^3) were 28, 41 and 38 at predosing, day 0 and day 3.

The structures appear in SMILES notation.

In the case of `C[C@]12CC[C@H](O)C[C@@H]1CC[C@@H]1[C@@H]2CC[C@]2(C)C(=O)[C@H](Br)C[C@@H]12` [BrEA, 16α-bromo-3β-hydroxy-5α-androstane-17-one], the “excreted in the feces” value in series [1] is listed as “at least 80%”. Moreover, the parasite clearance rate in series [2] amounted to 100%. The “HCV level by PCR” value stood at 5.5 Log10 in series [3] (3rd day of dosing); 6.2 Log10 in series [3] (first day of dosing, 80 mg I.V. every 4 hours for 3 days); 4.9 Log10 in series [3] (three days after the last dose).
